Earlier results, collected in patent publication US20050272741A1, “Novel methods of treatment for Fontan patients with protein losing enteropathy” (priority 2004, published 2005).

System: mesenteric bed
Details: pretreatment with Viagra, high dose Norepinephrine

CCCc1nn(C)c2c(=O)[nH]c(-c3cc(S(=O)(=O)N4CCN(C)CC4)ccc3OCC)nc12 [Viagra, Sildenafil]
Mesenteric relaxation / constriction of the mesenteric bed: even high dose Norepinephrine fails to constrict the mesenteric bed
